Laboratory results reported in US12667569B2, “Use of sepiapterin and metabolites thereof to treat radiation exposure” (PTC Therapeutics MP, Inc., priority 2019, dated 2026).
“Also recorded” adds a separate entry of the source.

How the values were obtained:
[1] = system: cytokines' mRNAs in lung tissue; experiment: Cytokine mRNA expression (qPCR) in lung tissue after irradiation; format: in vivo, mice; conditions: 16 weeks after IR, mean±SD, vehicle 4.25±0.537
C57L/J mice [2] = experiment: Echocardiography: contractile reserve (isoproterenol response), myocardial performance index, IRT after irradiation; format: in vivo
Description: Both male and female C57L/J wild-type 6-8-week-old mice were purchased from Jackson Laboratory (Bar Harbor, ME). The mice were housed with a 12:12 h light-dark schedule and access to water and food ad libitum. The experiments were conducted under the guidelines of laboratory animals for biomedical research published by the National Institutes of Health (rev. 2011). The study protocol was approved by the Institutional Animal Care and Use Committee of Virginia Commonwealth University.
(§1) Equal numbers of male and female mice were distributed to each group. While under ketamine/xylazine anesthesia (100 mg/kg and 10 mg/kg, respectively) mice received 5 Gy total body irradiation (TBI), immediately followed by a top-up dose of 6.5 Gy to the thorax, for a total thoracic dose of 11.5 Gy, using a Varian 21 EX LINAC (Palo Alto, CA). Twenty-four hours post-irradiation, mice were treated once daily for 6 days by oral gavage with 1 mg/kg sepiapterin or 5 mg/kg BH4 dissolved in water (FIG. 1).
All mice underwent transthoracic echocardiography at baseline (before irradiation (IR)), at 8, 30, 60, 90 and 180 days, under light anesthesia (30 mg/kg pentobarbital sodium). Echocardiography was performed with the Vevo770 imaging system (VisualSonics, Toronto, Ontario, Canada) and a 30-MHz probe. The heart was visualized in B-mode from parasternal short-axis and apical views. The left ventricular (LV) end-diastolic diameter (EDD), LV end-systolic diameter (ESD), LV anterior wall diastolic thickness (AWDT), and LV posterior wall diastolic thickness (PWDT), LV anterior wall systolic thickness (AWST), and LV posterior wall systolic thickness (PWST) were measured at M-mode, according to the American Society of Echocardiography recommendations. LV ejection fraction (EF), and LV mass were calculated from the measurements of wall thickness and chamber diameters. The LVEF was derived using the Teicholz formula (LVEF=[LVEDD3−LVESD3]/LVEDD3), as previously described. The transmitral LV outflow tract Doppler spectra (E, A, ET) was recorded from an apical four-chamber view, and the myocardial performance index (MPI) was calculated as the […] isovolumetric contraction time (ICT) and isovolumetric relaxation time (IRT) divided by the ejection time (ED. The investigators performing and reading the echocardiograms were blinded to the treatment allocation. A beta-adrenergic agonist, isoproterenol (Sigma Aldrich, St. Louis, MO, USA) 20 ng/mouse, was used to assess cardiac contractility in irradiated mice without SP treatment. Cardiac contractility (contractile reserve) was expressed as percentage change in LVEF measured at rest (LVEFr) and 3 min after isoproterenol injection (LVEFi) and calculated as [(LVEFi−LVEFr)/LVEFr]*100. Measurements of the contractile reserve were taken at baseline, 8, 30, 60, 90 and 180 days after IR. Echocardiogram assessment was performed by an operator blinded to treatment allocation.

exosomal miRNAs = experiment: Serum exosomal miRNA expression after irradiation; format: in vivo, mice
Description: Blood was collected by cardiac puncture using EDTA vials. Blood samples were centrifuged 3,000×g for 25 minutes, and plasma fraction was aliquoted and saved in a vapor phase of liquid nitrogen. Exosomes were isolated from the plasma of mice at the time points shown in FIGS. 6A-6C using an Exosome isolation kit from 101Bio. Exosome concentrations were quantified by EXOCET Exosome Quantitation Kit (System Biosciences). Equal exosome number from 5 animals were combined for each time point, and total exosomal RNA was extracted by using miRNeasy Micro Kit (QIAGEN). For the miRNAs expression profiling the miRCURY LNA™ Universal RT microRNA PCR assay (QIAGEN) and ExiLENT SYBR® Green Maser Mix (QIAGEN) were used. The initial estimation of exosomal miRNAs expression was performed by using Serum/Plasma LNA™ miRNA PCR Panel (Cat. #YAHS-106Y. QIAGEN) on the QuantStudio 5 RT-PCR machine (Applied Biosystems).
The first group included let-7a-5p, miR-1, miR-106b-3p, miR-106b-5p, miR-126-3p, miR-181a-5p, miR-335-3p, and miR-335-5p. […] The second group included let-7g-5p, let-7i-5p, and miR-16-5p. There were no significant differences between males and females both in terms of exosomal miRNA expression altered by IR or the effects of sepiapterin on miRNA expression.

[3] = system: plasma IL-6, fibrinogen, neutrophil elastase, C-reactive protein; experiment: Plasma ELISA of IL-6, fibrinogen, neutrophil elastase, C-reactive protein after irradiation; format: in vivo, mice
Description: At the time of sacrifice, blood was obtained by heart puncture into EDTA containing tubes and centrifuged at 3000 rpm for 25 mins to isolate the plasma. The following ELISA plates from Abcam were used for analysis: fibrinogen (ab213478), neutrophil elastase (ab252356), C-reactive protein (ab157712) and IL-6 (ab100713). Plasma samples were processed and ELISA kits were run according to manufacturer recommendations. All cytokines were reported with an absolute unit. Key molecular players of the coagulation cascade like tissue factor, thrombin, and fibrinogen are epidemiologically and mechanistically linked with an inflammatory component. Genetic and pharmacologic studies have unraveled pivotal roles for fibrinogen in determining the extent of local or systemic inflammation. Neutrophil elastase, a serine protease present in the azurophil granules of neutrophils, is released in an inflammatory state and disintegrates extracellular matrices due to its low substrate specificity, resulting in tissue injury. Neutrophil elastase is one of the most destructive enzymes in the body. Once unregulated, this enzyme disturbs the function of the lung permeability barrier and induces the release of pro-inflammatory cytokines with stimulation of acute lung injury. […] High levels of IL-6 in blood plasma may exacerbate the inflammatory response in the lung tissue, which ultimately causes IL-6 leakage to bronchoalveolae and further lung damage. High levels of IL-6 in the lung tissue may attract more inflammatory cells such as neutrophils, monocytes, macrophages to the injured local lung which ultimately causes serious damage to the lung and leads to chronic fibrosis. An acute raise of IL-6 in plasma can lead to increases in C Reactive Protein (CRP). C Reactive Protein (CRP) is produced by the liver and is a biomarker for general stress response to inflammation or infectious agents. It was shown that serum CRP level may be an effective indicator for predicting the occurrence of radiation pneumonitis and valuable factor for evaluating radiation-induced lung-injury extent.

[4] = system: cytokines' mRNAs in lung tissue; experiment: Cytokine mRNA expression (qPCR) in lung tissue after irradiation; format: in vivo, mice
Description: (§2) Total RNA was isolated from the lung and heart tissue samples following the manufacturers instructions with the RNeasy Mini kit (Qiagen). The RNA concentration was evaluated by using a NanoDrop ND-1000 spectrophotometer (Thermo Scientific). RNA purity was assessed by the ratios of A260/A280 and A260/A230. RNA integrity was evaluated by the ratio of 28S/18S ribosomal RNA (rRNA) and the RNA integrity number (RIN) using an Agilent 2100 BioAnalyzer (Agilent Technologies). cDNA synthesis and genomic DNA elimination were performed by using RT2 First Strand Kit (QIAGEN). Samples were amplified using RT2 SYBR® Green qPCR Mastermix probes from QIAGEN on the QuantStudio 5 RT-PCR machine (Applied Biosystems). The following RT2 qPCR Primer Assays (QIAGEN) were used: Mouse Actin-β (NM_007393), Mouse Bmp2 (NM_007553), Mouse Ccl2 (NM_011333), Mouse Ctgf (NM_010217), Mouse IL-1β (NM_008361), Mouse IL-6 (NM_031168), Mouse IL-10 (NM_010548), Mouse IL-17α (NM_010552), Mouse Runx2 (NM_001145920), Mouse Spp1 (NM_001204201), Mouse TGF-β1 (NM_011577), Mouse Trim72 (NM_001079932).

[5] = system: cytokines' mRNAs in heart tissue; experiment: Cytokine mRNA expression (qPCR) in heart tissue after irradiation; format: in vivo, mice; conditions: 8 days, 30 days, 16 weeks after IR, SP vs vehicle
Description: as §2

C57L/J mice [6] = experiment: Assessment of lung injury by breathing rate (MouseOx) after irradiation; format: in vivo; conditions: irradiated mice
Description: as §1
The breathing rate was measured every other week starting in week 6 using the Mouse Ox system (STARR Life Sciences Corp., Allison Park, PA). The animal was placed under ketamine/xylazine anesthesia and shaved in the area of analysis. 10 min post injection the animal was placed in a supine position with the sensor clipped to the upper thigh. The breathing rate was recorded for 3 min. The breathing rate was calculated using an algorithm in the Mouse Ox software.

C57L/J mice [7] = experiment: Survival over 180 days post IR (Kaplan Meyer); format: in vivo
Description: as §1
To determine whether the improved cardiopulmonary function impacted overall survival the mice were followed over 180 days post IR.

[8] = 30 days after IR, SP-treated vs vehicle-treated
[9] = irradiated mice, BH4 5 mg/kg oral once daily 6 days from 24 h post-IR

Structure (SMILES): C[C@H](O)C(=O)C1=Nc2c([nH]c(N)nc2=O)NC1 [SP, Sepiapterin]
- relative expression of Spp2 mRNA [1]: 2.38±0.211
- systolic and diastolic function response, evaluated by sex (C57L/J mice [2]; irradiated male vs female mice, 1 mg/kg SP): no significant differences in heart function response
- mitigation of loss in contractile reserve, evaluated by sex (C57L/J mice [2]; irradiated male vs female mice, SP 1 mg/kg): equally effective in mitigating this loss in contractile reserve
- contractile reserve (response to isoproterenol) (C57L/J mice [2]; irradiated mice (5 Gy TBI + 6.5 Gy thorax), SP 1 mg/kg oral once daily 6 days from 24 h post-IR, up to 180 days, vs vehicle): restore the response to beta-adrenergic stimulation by isoproterenol; also recorded: enhanced contractile reserve; also recorded: blunted the drop in the contractile reserve at all the time points
- myocardial performance index (Tei index) and isovolumetric relaxation time (IRT); systolic and diastolic function (C57L/J mice [2]; irradiated mice, SP 1 mg/kg oral once daily 6 days from 24 h post-IR, up to 180 days, vs vehicle): ameliorating the progressive increase in myocardial performance index and IRT; also recorded: improved systolic and diastolic function; also recorded: blunted the increase in the Tei index and IRT at all the time points
- exosomal expression of let-7a-5p, miR-1, miR-106b-3p, miR-106b-5p, miR-126-3p, miR-181a-5p, miR-335-3p, miR-335-5p (exosomal miRNAs; [8]): significantly lower in vehicle-treated animals comparing with SP-treated animals
- exosomal expression of let-7g-5p, let-7i-5p, miR-16-5p (exosomal miRNAs; [8]): significantly higher in vehicle-treated animals comparing with SP-treated animals
- plasma level of IL-6 ([3]; 4 days after IR, vehicle 304.05±153.23): 97.00 ± 45.71 pg/mL
- plasma level of IL-6 ([3]; 8 days after IR, vehicle 606.09±72.72): 49.85 ± 39.36 pg/mL
- plasma level of fibrinogen ([3]; 8 days after IR, vehicle 948.77±98.54): 332.38 ± 109.02 µg/mL
- plasma level of neutrophil elastase ([3]; 180 days after IR, vehicle 25.21±6.54): 12.15 ± 2.87 ng/mL
- plasma level of IL-6 ([3]; 180 days after IR, vehicle 197.22±55.55): 40.06 ± 43.26 pg/mL
- plasma C reactive protein ([3]; any time-point after IR, SP vs vehicle): did not demonstrate significant difference
- relative expression of TGF-β1 mRNA ([4]; 16 weeks after IR, mean±SD, vehicle 3.26±0.339): 1.53±0.367
- relative expression of IL-17A mRNA ([4]; 16 weeks after IR, mean±SD, vehicle 4.5±0.824): 2.12±1.173
- relative expression of IL-6 mRNA ([4]; 16 weeks after IR, mean±SD, vehicle 28.85±5.987): 17.05±4.12
- relative expression of IL-17A mRNA ([4]; 8 days after IR, mean±SD, vehicle 9.19±2.783): 2.71±1.874
- relative expression of IL-6 mRNA ([4]; 8 days after IR, mean±SD, vehicle 16.88±4.91): 1.36±0.509
- relative expression of IL-1β mRNA ([4]; 8 days after IR, relative to non-irradiated control, mean±SD, vehicle 2.9±0.649): 1.54±0.825
- relative expression of Ccl2 mRNA ([4]; 30 days after IR, SP vs vehicle): no significant difference between Vehicle-treated and SP-treated animal groups
- relative expression of IL-1β mRNA ([4]; 30 days after IR, mean±SD, vehicle 3.39±0.532): 1.66±0.51
- relative expression of IL-17A mRNA ([4]; 30 days after IR, mean±SD, vehicle 5.65±2.263): 1.49±0.379
- relative expression of IL-6 mRNA ([4]; 30 days after IR, mean±SD, vehicle 9.09±0.533): 4.96±0.905
- expression of all evaluated cytokines (Bmp2, Ccl2, Ctgf, IL-1β, IL-6, IL-10, IL-17A, IL-33, Runx2, Spp2, TGF-β1, Trim72) [5]: no significant difference in expression between Vehicle-treated and SP-treated groups
- time to development of lung injury (C57L/J mice [6]; 1 mg/kg/day SP for 6 days, vehicle 10 weeks): 14 weeks
- lung function (breathing rate) (C57L/J mice [6]; 1 mg/kg/day SP for 6 days, vs vehicle, 1 mg/kg/day): significantly reduced impairment of lung function at all points measured; also recorded: decreasing breathing frequency; also recorded: significantly improved pulmonary function at all points measured
- mice alive at 180 days (C57L/J mice [7]; 11.5 Gy total thoracic dose, 1 mg/kg/day SP for 6 days, untreated 40%): 71%
- overall survival (C57L/J mice [7]; 11.5 Gy total thoracic dose, 1 mg/kg/day SP for 6 days, vs irradiated without treatment, 1 mg/kg/day): significantly delayed and overall improved survival; also recorded: increased survival

Structure (SMILES): C[C@H](O)[C@H](O)[C@H]1CNc2[nH]c(N)nc(=O)c2N1 [BH4, Tetrahydrobiopterin]
- contractile reserve (C57L/J mice [2]; [9]): enhanced contractile reserve
- systolic and diastolic function (C57L/J mice [2]; [9]): improved systolic and diastolic function
- exosomal expression of miR-15b-3p, miR-106a-5p, miR-133b, miR-136-5p, miR-451a, miR-1, miR-335-3p, let-7d-3p, let-7c-5p (exosomal miRNAs; irradiated mice, BH4 treatment (FIG. 6A)): increases in expression
- development of lung injury (C57L/J mice [6]; 5 mg/kg BH4 for 6 days, vs vehicle): significant delay in the development of lung injury
- lung function (breathing rate) (C57L/J mice [6]; 5 mg/kg BH4 for 6 days, vs vehicle, 5 mg/kg): significantly reduced impairment of lung function at all points measured; also recorded: decreasing breathing frequency
- survival (C57L/J mice [7]; irradiated mice, oral BH4 starting 24 hours after radiation): increased survival
